Test results as given in patent US4921858A, “7-deazaguanines as immunomodulators” (Warner-Lambert Company, priority 1989, dated 1990).

Assays:
rejection of skin graft = conditions: dogs; cited from earlier work
[1] = target: T1, purine nucleoside phosphorylase (PNP-4) (Homo sapiens, UniProt P00491); experiment: PNP-4 enzyme assay, radiochemical, formation of [14C]hypoxanthine from [14C]inosine; assay type: biochemical; conditions: human erythrocyte enzyme
T1 construct: using human erythrocyte as the enzyme source; from tissue; host or cells: human erythrocyte
T1 sequence (P00491 1-289): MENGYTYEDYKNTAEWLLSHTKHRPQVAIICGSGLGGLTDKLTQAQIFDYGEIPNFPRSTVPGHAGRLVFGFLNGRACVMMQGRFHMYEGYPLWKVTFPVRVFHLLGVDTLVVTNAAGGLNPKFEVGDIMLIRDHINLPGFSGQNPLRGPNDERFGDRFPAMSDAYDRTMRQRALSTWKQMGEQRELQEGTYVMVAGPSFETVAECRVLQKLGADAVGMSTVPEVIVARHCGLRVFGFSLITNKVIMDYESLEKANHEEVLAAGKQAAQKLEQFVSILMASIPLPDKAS
Experimental: In the purine nucleoside phosphorylase (PNP-4) enzyme assay, an IC50 is achieved at a dose of 1.0 micromoles on a selected compound of the present invention. PNP-4 activity for the compound of formula I is measured radiochemically by measuring the formation of [^14 --C]hypoxanthine from [^14 --C]inosine [Biomedicine, 33, 39 (1980)] using human erythrocyte as the enzyme source.

T-cells = experiment: HTBA-1 T-cell cytotoxicity in the presence of 2'-deoxyguanosine; assay type: cell-based
B-cell = experiment: HTBA-1 B-cell toxicity in the presence of 2'-deoxyguanosine; assay type: cell-based; conditions: in the presence of the same amount of 2'-deoxyguanosine

SMILES	inhibiting rejection of skin graft (rejection of skin graft)	IC50 [1]	IC50 (T-cells; T-cell, + 10 μM 2'-deoxyguanosine, read-out: HTBA-1 T-Cell + 10 μM 2'-d Gua, IC50)	selective cytotoxicity for T-cells (T-cells; in the presence of 2'-deoxyguanosine, at a similar concentration range)	toxicity to B-cell (B-cell)
Nc1nc2c(nc(N)n2[C@@H]2O[C@H](CO)[C@@H](O)[C@H]2O)c(=O)[nH]1 [8-Aminoguanosine]	efficacious for inhibiting rejection of skin graft in dogs	–	–	–	–
Nc1nc2c(ccn2Cc2cccs2)c(=O)[nH]1 [Example 2, 2-Amino-7-(2-thienylmethyl)-4-pyrrolo[2,3-d]pyrimidone]	–	1000 nM	2300 nM	selectively cytotoxic for T-cells	nontoxic to B-cell
